# ChEMBL document CHEMBL1137871, “Discovery of orally active prostaglandin D2 receptor antagonists” (Bioorg Med Chem Lett, 2004)
# Experiments:
# [1] = molecular target: T1, Prostaglandin D2 receptor (Mus musculus, UniProt P70263); experiment: Ability to inhibit the binding of [3H]PGD-2 radioligand to membranes of CHO cells stably expressing mouse Prostaglandin D2 receptor; type: cell membranes
# T1 sequence (P70263 whole entry): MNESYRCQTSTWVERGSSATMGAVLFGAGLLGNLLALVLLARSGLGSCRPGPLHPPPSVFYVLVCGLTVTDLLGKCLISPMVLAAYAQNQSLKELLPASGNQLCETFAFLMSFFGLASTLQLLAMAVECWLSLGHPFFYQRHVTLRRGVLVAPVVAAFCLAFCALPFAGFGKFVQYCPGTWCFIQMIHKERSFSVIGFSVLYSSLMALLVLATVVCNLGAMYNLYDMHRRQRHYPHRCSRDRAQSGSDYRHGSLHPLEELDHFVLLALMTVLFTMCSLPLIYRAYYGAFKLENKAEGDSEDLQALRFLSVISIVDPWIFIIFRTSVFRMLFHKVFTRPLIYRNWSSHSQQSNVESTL
# [2] = molecular target: Prostaglandin E2 receptor EP2 subtype (Mus musculus, UniProt Q62053); experiment: Ability to inhibit the binding of [3H]-PGD-2 radioligand to membranes of CHO cells stably expressing mouse Prostaglandin E receptor EP2; type: cell membranes
# Sequence of Prostaglandin E2 receptor EP2 subtype (Q62053 whole entry): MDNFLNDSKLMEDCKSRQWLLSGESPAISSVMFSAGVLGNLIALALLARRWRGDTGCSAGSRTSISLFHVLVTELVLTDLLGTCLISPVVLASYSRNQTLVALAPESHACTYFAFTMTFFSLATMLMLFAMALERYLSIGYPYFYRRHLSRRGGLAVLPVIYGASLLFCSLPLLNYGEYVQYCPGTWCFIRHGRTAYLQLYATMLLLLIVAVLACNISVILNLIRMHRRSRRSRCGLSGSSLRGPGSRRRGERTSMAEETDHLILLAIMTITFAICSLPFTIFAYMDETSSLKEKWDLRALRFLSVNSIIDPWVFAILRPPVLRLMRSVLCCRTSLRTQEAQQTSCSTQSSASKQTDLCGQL
# [3] = molecular target: T2, Prostaglandin E2 receptor EP1 subtype (Mus musculus, UniProt P35375); experiment: Ability to inhibit the binding of [3H]PGD-2 radioligand to membranes of CHO cells stably expressing mouse Prostaglandin E receptor EP1; type: cell membranes
# T2 sequence (P35375 whole entry): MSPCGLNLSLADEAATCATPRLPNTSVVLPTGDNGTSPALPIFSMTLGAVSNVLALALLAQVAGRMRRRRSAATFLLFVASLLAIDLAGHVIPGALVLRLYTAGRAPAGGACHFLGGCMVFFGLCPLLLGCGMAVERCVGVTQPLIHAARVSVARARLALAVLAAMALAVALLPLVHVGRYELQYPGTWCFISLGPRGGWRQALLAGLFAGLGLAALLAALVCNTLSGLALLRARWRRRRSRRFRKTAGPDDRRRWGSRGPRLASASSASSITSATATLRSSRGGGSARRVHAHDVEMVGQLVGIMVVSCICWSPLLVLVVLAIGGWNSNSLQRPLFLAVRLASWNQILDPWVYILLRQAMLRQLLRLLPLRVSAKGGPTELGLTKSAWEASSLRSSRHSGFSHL
# [4] = molecular target: Prostaglandin E2 receptor EP4 subtype (Mus musculus, UniProt P32240); experiment: Ability to inhibit the binding of [3H]PGD-2 radioligand to membranes of CHO cells stably expressing mouse Prostaglandin E receptor EP4; type: cell membranes
# Sequence of Prostaglandin E2 receptor EP4 subtype (P32240 whole entry): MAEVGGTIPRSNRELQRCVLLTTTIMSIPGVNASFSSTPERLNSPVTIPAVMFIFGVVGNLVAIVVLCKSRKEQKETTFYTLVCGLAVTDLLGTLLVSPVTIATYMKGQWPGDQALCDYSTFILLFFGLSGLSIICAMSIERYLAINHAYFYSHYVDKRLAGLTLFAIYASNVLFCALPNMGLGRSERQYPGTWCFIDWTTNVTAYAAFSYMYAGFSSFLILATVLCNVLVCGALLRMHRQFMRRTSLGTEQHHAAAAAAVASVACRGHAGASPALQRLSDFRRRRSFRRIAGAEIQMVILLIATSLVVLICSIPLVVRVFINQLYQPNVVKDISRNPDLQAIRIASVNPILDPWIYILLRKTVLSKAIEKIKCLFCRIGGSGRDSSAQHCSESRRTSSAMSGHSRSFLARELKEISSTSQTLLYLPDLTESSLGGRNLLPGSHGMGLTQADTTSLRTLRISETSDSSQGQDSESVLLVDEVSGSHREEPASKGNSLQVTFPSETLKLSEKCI
# [5] = molecular target: T3, Prostaglandin E2 receptor EP3 subtype (Mus musculus, UniProt P30557); experiment: Ability to inhibit the binding of [3H]PGD-2 radioligand to membranes of CHO cells stably expressing mouse Prostaglandin E receptor EP3; type: cell membranes
# T3 sequence (P30557 whole entry): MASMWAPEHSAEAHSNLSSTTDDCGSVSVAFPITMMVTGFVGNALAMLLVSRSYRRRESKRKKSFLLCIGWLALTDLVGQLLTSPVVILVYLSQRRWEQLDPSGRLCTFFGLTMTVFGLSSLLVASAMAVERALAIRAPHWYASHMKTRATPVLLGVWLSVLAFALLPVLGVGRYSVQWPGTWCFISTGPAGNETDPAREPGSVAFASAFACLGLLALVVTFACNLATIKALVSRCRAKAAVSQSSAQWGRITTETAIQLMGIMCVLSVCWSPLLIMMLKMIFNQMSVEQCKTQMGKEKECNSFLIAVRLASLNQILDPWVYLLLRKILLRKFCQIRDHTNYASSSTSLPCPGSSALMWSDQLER
# [6] = molecular target: T1, Prostaglandin D2 receptor; experiment: Effect on the increase in cAMP formation induced by PGD-2 in the presence of bovine serum albumin in CHO cells expressing mouse Prostaglandin D2 receptor; type: functional, cell-based
# [7] = molecular target: T4, Prostaglandin D2 receptor (Homo sapiens, UniProt Q13258); experiment: Effect on the increase in cAMP formation induced by PGD-2 in the presence of bovine serum albumin in CHO cells expressing human Prostaglandin D2 receptor; type: functional, cell-based
# T4 sequence (Q13258 whole entry): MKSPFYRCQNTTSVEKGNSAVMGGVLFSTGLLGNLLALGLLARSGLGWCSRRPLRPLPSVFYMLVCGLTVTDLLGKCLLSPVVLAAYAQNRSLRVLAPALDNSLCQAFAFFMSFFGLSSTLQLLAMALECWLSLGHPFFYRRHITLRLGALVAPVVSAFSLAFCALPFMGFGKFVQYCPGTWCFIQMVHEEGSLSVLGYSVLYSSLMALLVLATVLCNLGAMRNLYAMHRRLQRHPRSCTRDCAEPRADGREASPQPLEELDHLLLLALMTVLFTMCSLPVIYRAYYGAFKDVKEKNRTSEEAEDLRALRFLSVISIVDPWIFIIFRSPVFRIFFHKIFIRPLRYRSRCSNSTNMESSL
# [8] = molecular target: T4, Prostaglandin D2 receptor; experiment: Ability to inhibit the binding of [3H]PGD-2 radioligand to membranes of CHO cells stably expressing human Prostaglandin D2 receptor; type: cell membranes
# [9] = system: Cavia porcellus; experiment: inhibitory effect of compound on PGD-2 (0.01%, 20 uL/eye) induced vascular permeability in guinea pig conjunctiva at an oral dose of 0.3 mg/kg
Ki [1],Ki [2],Ki [3],Ki [4],Ki [5],IC50 [6],IC50 [7],Ki [8],Compound,inhibition in vivo at 0.3 mg/kg [9]
180 nM,280 nM,> 10000 nM,3500 nM,> 10000 nM,,,390 nM,Cc1cc2c(CC(=O)O)cccc2n1C(=O)c1ccc(OCC2COc3ccccc3C2)cc1 (stereo unspecified),
20 nM,450 nM,7800 nM,> 10000 nM,980 nM,,30 nM,20 nM,Cc1cc2c(CC(=O)O)cccc2n1C(=O)c1ccc(OCC2Cc3ccccc3O2)cc1 (stereo unspecified),
10 nM,60 nM,2000 nM,> 10000 nM,> 10000 nM,,30 nM,10 nM,Cc1cc2c(CC(=O)O)cccc2n1C(=O)c1ccc(OC[C@@H]2COc3ccccc3O2)cc1,
60 nM,90 nM,3800 nM,3100 nM,> 10000 nM,,30 nM,50 nM,Cc1cc2c(CC(=O)O)cccc2n1C(=O)c1ccc(OCC2CCc3ccccc3O2)cc1 (stereo unspecified),
120 nM,1300 nM,2300 nM,1300 nM,> 10000 nM,,270 nM,130 nM,Cc1cc2c(CC(=O)O)cccc2n1C(=O)c1ccc(OC[C@H]2COc3ccccc3O2)cc1,

# More lines, now with the values behind:
Compound,Ki [1],Ki [2],Ki [3],Ki [4],Ki [5],IC50 [6],IC50 [7],Ki [8],inhibition in vivo at 0.3 mg/kg [9]
CCCCOc1ccc(C(=O)n2c(C)cc3c(CC(=O)O)cccc32)cc1,10 nM,2000 nM,> 10000 nM,> 10000 nM,3300 nM,300 nM,,,
Cc1cc2c(CC(=O)O)cccc2n1C(=O)c1ccc(OCC2Oc3ccccc3O2)cc1,9.4 nM,250 nM,780 nM,> 10000 nM,750 nM,,50 nM,30 nM,
Cc1cc2c(CC(=O)O)cccc2n1C(=O)c1ccc(OC[C@@H]2CN(C)c3ccc(F)cc3O2)cc1,23 nM,2100 nM,> 10000 nM,> 10000 nM,1700 nM,,0.81 nM,5.3 nM,60%
Cc1cc2c(CC(=O)O)cccc2n1C(=O)c1ccc(OCCOc2ccccc2)cc1,10 nM,540 nM,5600 nM,> 10000 nM,> 10000 nM,50 nM,250 nM,290 nM,
Cc1cc2c(CC(=O)O)cccc2n1C(=O)c1ccc(OCCCc2ccccc2)cc1,170 nM,,7700 nM,2100 nM,3300 nM,,,,
Cc1cc2c(CC(=O)O)cccc2n1C(=O)c1ccc(OCCc2ccccc2)cc1,,1300 nM,400 nM,1900 nM,2200 nM,,,,
Cc1cc2c(CC(=O)O)cccc2n1C(=O)c1ccc(OC[C@@H]2CN(C)c3ccccc3O2)cc1,10 nM,100 nM,6200 nM,> 10000 nM,1700 nM,,1.2 nM,3.5 nM,
Cc1cc2c(CC(=O)O)cccc2n1C(=O)c1ccc(OCc2ccccc2)cc1,60 nM,330 nM,1200 nM,> 10000 nM,1200 nM,1300 nM,,,
Cc1cc2c(CC(=O)O)cccc2n1C(=O)c1ccc(OC[C@H]2CN(C)c3ccccc3O2)cc1,230 nM,410 nM,> 10000 nM,> 10000 nM,> 10000 nM,,10 nM,170 nM,
